# According to US12091426B2, “Bifunctional degraders of hematopoietic progenitor kinase and therapeutic uses thereof” (Nurix Therapeutics, Inc., priority 2021, dated 2024):
# Target: T1, HPK1 (Homo sapiens, UniProt Q92918)
# T1 construct: A HiBiT tag was introduced by CRISPR on the N terminus of HPK1 in Jurkat cells; host or cells: Jurkat cells (ATCC TIB-152), monoclonal line with CRISPR knock-in of HiBiT at the endogenous HPK1 locus
# Experiment: HPK1 Cellular HiBit Degradation Assay
# Assay type: cell-based
# Settings: HiBiT HPK1 Jurkat cells, 24 hrs; for DC50: concentration at which 50% of HPK1 was remaining, read-out: DC50 Category; for Dmax: Jurkat, maximum degradation vs DMSO vehicle control, read-out: Dmax Category
# Method: HPK1 Cellular HiBit Degradation Assay
# A HiBiT tag was introduced by CRISPR on the N terminus of HPK1 in Jurkat cells (ATCC® TIB-152) to allow quantitation of HPK1 protein levels in a monoclonal human cell line. Cells were plated at 1×10^6 cells/mL, 30 uL/well (3×10^4 cells/well) in complete RPMI 1640 (10% heat inactivated FBS, 1% L-glutamine) in 384-well assay plates (Corning, cat. no. 3570). HPK1 chimeric targeting molecules (CTMs) were added in an 11 point dilution series (11-point, 3.16-fold) with a final assay concentration range of 10 uM to 0.1 nM. The parental Jurkat cell line, with no HiBiT insertion, was included in the assay as a background control. Cell treated with a DMSO vehicle control was used to determine the maximum signal defining 100% HPK1 in the cell. Cells were incubated for 24 hrs at 37° C./5% CO2. Following incubation, 30 uL of complete Nano-Glo HiBiT Lytic Detection Reagent (Promega cat. no. N3040) was added. Cells were incubated for 10 min at room temperature and luminescence was read on an EnVision plate reader (Perkin Elmer, 0.1 sec per well). Viability was assessed in the same plate using Cell Titer Fluor (Promega) and read on an EnVision plate reader to ensure results were not the effect of cytotoxicity. Percent HPK1 remaining per sample was calculated as follows:
# [formula] % HPK1 remaining values were plotted as a function of compound concentration and curves were fit using the Prism (GraphPad) equation “log(inhibitor) vs response−Variable slope (four parameters)”. Dmax values were calculated by identifying the lowest % remaining and subtracting from 100. DC50 values were determined by extrapolating from the curve the concentration at which 50% of HPK1 was remaining based on the DMSO control.
# HiBiT HPK1 Jurkat cell lines were used to evaluate the total protein levels of HPK1 in a robust human cellular high throughput format. The level of HPK1 remaining following treatment with HPK1 CTMs is reported as Dmax (maximum degradation) achieved at 24 hours when compared to vehicle treated controls. […] These decreases were not a result of cytotoxicity measured by a viability assessment.
# T1 sequence (Q92918 whole entry): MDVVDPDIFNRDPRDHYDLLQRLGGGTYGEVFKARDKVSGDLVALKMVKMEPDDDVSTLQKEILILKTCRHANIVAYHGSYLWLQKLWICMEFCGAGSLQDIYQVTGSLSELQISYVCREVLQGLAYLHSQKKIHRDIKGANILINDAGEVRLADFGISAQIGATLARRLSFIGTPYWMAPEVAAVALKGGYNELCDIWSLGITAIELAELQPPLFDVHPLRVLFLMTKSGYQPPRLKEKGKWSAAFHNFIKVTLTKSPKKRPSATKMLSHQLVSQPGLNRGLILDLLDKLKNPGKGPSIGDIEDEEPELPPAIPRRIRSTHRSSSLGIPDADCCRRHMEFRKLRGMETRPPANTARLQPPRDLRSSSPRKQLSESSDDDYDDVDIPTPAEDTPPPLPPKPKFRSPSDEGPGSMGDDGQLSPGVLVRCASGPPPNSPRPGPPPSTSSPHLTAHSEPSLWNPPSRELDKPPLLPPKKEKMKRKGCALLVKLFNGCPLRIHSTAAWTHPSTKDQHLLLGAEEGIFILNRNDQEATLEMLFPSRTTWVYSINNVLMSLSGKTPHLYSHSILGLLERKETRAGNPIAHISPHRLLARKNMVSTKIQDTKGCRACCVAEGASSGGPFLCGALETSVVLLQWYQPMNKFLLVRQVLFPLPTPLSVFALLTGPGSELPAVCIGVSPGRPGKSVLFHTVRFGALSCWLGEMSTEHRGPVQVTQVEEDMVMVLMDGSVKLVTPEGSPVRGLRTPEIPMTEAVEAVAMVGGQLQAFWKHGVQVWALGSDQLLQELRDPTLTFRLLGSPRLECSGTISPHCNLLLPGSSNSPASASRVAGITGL
Structure (SMILES),DC50 [nM],Dmax [%]
"CC(C)n1cnc2cc(-c3ccc4c(c3)N([C@H]3C[C@@H](N5CCCCC5)C3)C(=O)C43CCN(C(=O)[C@@H]4CCN(C(=O)[C@H]5CC[C@H](N(C)c6ccc(C7CCC(=O)NC7=O)cn6)CC5)C4)CC3)nc(NC3CC3)c21 (mixture of isomers) [Example 126, (3RS)-3-(6-{methyl[(1R,4R)-4-[(3R)-3-({6-[4-(cyclopropylamino)-3-(propan-2-yl)-3H-imidazo[4,5-c]pyridin-6-yl]-2-oxo-1-[(1S,3S)-3-(piperidin-1-yl)cyclobutyl]-1,2-dihydrospiro[indole-3,4′-piperidin]-1′-yl}carbonyl)pyrrolidine-1-carbonyl]cyclohexyl]amino}pyridin-3-yl)piperidine-2,6-dione]",< 100,> 85
"CC(C)n1cnc2cc(-c3ccc4c(c3)N([C@H]3C[C@@H](N5CCCCC5)C3)C(=O)C43CCN(C(=O)C4CCN(C(=O)[C@H]5CC[C@H](n6cc7cc(C8CCC(=O)NC8=O)ccc7n6)CC5)CC4)CC3)nc(NC3CC3)c21 (stereo partly drawn) [Example 179, 3-{2-[(1R,4R)-4-[4-({6-[4-(cyclopropylamino)-3-(propan-2-yl)-3H-imidazo[4,5-c]pyridin-6-yl]-2-oxo-1-[(1S,3S)-3-(piperidin-1-yl)cyclobutyl]-1,2-dihydrospiro[indole-3,4′-piperidin]-1′-yl}carbonyl)piperidine-1-carbonyl]cyclohexyl]-2H-indazol-5-yl}piperidine-2,6-dione]",100 to 500,70 to 85
"CC(C)n1cnc2cc(-c3ccc4c(c3)N([C@H]3C[C@@H](N5CCCCC5)C3)C(=O)C43CCN(C(=O)C4C5CC4CN(C(=O)C4CCN(c6ccc(C7CCC(=O)NC7=O)cn6)CC4)C5)CC3)nc(NC3CC3)c21 (mixture of isomers) [Example 282, (3RS)-3-(6-{4-[6-({6-[4-(cyclopropylamino)-3-(propan-2-yl)-3H-imidazo[4,5-c]pyridin-6-yl]-2-oxo-1-[(1S,3S)-3-(piperidin-1-yl)cyclobutyl]-1,2-dihydrospiro[indole-3,4′-piperidin]-1′-yl}carbonyl)-3-azabicyclo[3.1.1]heptane-3-carbonyl]piperidin-1-yl}pyridin-3-yl)piperidine-2,6-dione]",< 100,70 to 85

# The remaining lines, values ahead:
DC50 [nM],Dmax [%],Structure (SMILES)
< 100,> 85,"CC(C)n1cnc2cc(-c3ccc4c(c3)N([C@H]3C[C@@H](N5CC6CCC(C6)C5)C3)C(=O)C43CCN(C(=O)C4(C)CCN(C(=O)C5CCN(c6ccc(C7CCC(=O)NC7=O)cn6)CC5)CC4)CC3)nc(NC3CC3)c21 (mixture of isomers) [Example 217, (3RS)-3-(6-{4-[4-({6-[4-(cyclopropylamino)-3-(propan-2-yl)-3H-imidazo[4,5-c]pyridin-6-yl]-2-oxo-1-[(1S,3S)-3-{3-Azabicyclo[3.2.1]octan-3-yl}cyclobutyl]-1,2-dihydrospiro[indole-3,4′-piperidin]-1′-yl}carbonyl)-4-methylpiperidine-1-carbonyl]piperidin-1-yl}pyridin-3-yl)piperidine-2,6-dione]"
< 100,70 to 85,"CC(C)n1cnc2cc(-c3ccc4c(c3)N([C@H]3C[C@@H](N5CCCCC5)C3)C(=O)C43CCN(C(=O)C4(C)CCN(C(=O)C5CCN(c6ccc(N7CCC(=O)NC7=O)cn6)CC5)CC4)CC3)nc(NC3CC3)c21 [Example 115, 1-(6-{4-[4-({6-[4-(cyclopropylamino)-3-(propan-2-yl)-3H-imidazo[4,5-c]pyridin-6-yl]-2-oxo-1-[(1S,3S)-3-(piperidin-1-yl)cyclobutyl]-1,2-dihydrospiro[indole-3,4′-piperidin]-1′-yl}carbonyl)-4-methylpiperidine-1-carbonyl]piperidin-1-yl}pyridin-3-yl)-1,3-diazinane-2,4-dione]"
